Data published in ChEMBL document CHEMBL6121004, “Design, synthesis, and biological evaluation of Ponatinib-based N-Phenylpyrimidine-2-amine derivatives as novel fibroblast growth factor receptor 4 (FGFR4) selective inhibitors” (Eur J Med Chem, 2025).
Activity calls are given as the source filed them. The calls are words filed in the database; no cut-off is given here.

Legend:
[1] = molecular target: T1, Fibroblast growth factor receptor 1 (Homo sapiens, UniProt P11362); details: dose 10.0 nM
Target sequence in this assay (P11362 22-822 limits assumed): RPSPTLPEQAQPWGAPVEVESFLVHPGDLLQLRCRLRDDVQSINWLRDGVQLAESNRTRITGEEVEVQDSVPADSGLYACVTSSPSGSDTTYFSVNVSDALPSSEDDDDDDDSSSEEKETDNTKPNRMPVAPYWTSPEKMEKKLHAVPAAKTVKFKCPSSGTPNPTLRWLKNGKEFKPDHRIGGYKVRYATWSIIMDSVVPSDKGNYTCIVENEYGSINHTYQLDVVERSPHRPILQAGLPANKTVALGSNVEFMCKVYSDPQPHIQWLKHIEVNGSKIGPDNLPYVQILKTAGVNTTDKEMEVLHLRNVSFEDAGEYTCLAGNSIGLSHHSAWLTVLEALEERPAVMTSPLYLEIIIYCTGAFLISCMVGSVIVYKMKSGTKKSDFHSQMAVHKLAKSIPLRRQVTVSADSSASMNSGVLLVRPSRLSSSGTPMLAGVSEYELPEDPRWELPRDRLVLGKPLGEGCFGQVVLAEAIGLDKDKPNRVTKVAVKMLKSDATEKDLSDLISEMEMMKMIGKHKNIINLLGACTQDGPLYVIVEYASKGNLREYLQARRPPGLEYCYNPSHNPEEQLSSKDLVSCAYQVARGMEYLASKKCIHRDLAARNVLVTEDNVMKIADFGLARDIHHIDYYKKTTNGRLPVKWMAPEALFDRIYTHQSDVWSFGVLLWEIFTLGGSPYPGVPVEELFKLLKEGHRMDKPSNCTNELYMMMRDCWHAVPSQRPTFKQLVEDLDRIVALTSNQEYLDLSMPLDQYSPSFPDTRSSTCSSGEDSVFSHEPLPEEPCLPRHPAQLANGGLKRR
Description: Inhibition of FGFR1 (unknown origin) at 10 nM incubated for 15 mins in presence of ATP relative to control

[2] = molecular target: T1, Fibroblast growth factor receptor 1; details: dose 100.0 nM
Target sequence in this assay (P11362 22-822 limits assumed): as above
Description: Inhibition of FGFR1 (unknown origin) at 100 nM incubated for 15 mins in presence of ATP relative to control

[3] = Antiproliferative activity against human L02 cells assessed as inhibition of cell proliferation incubated for 72 hrs by MTT assay; type: toxicity, cell-based
Hep 3B2 [4] = assay: Induction of apoptosis in human Hep3B cells assessed as early apoptotic cells at 0.5 uM incubated for 48 hrs by annexin V-FITC/propidium iodide staining based flow cytometry analysis (reference value: 4.69%); type: functional
Huh-7 [5] = assay: Induction of apoptosis in human Huh-7 cells assessed as viable cells at 0.5 uM incubated for 48 hrs by annexin V-FITC/propidium iodide staining based flow cytometry analysis (reference value: 84.91%); type: functional; details: read-out: Activity
Huh-7 [6] = assay: Induction of apoptosis in human Huh-7 cells assessed as late apoptotic cells at 0.5 uM incubated for 48 hrs by annexin V-FITC/propidium iodide staining based flow cytometry analysis (reference value: 5.20%); type: functional
Hep 3B2 [7] = assay: Induction of apoptosis in human Hep3B cells assessed as viable cells at 0.5 uM incubated for 48 hrs by annexin V-FITC/propidium iodide staining based flow cytometry analysis (reference value: 84.91%); type: functional; details: read-out: Activity
Huh-7 [8] = assay: Induction of apoptosis in human Huh-7 cells assessed as early apoptotic cells at 0.5 uM incubated for 48 hrs by annexin V-FITC/propidium iodide staining based flow cytometry analysis (reference value: 4.59%); type: functional
Hep 3B2 [9] = assay: Induction of apoptosis in human Hep3B cells assessed as necrotic cells at 0.5 uM incubated for 48 hrs by annexin V-FITC/propidium iodide staining based flow cytometry analysis (reference value: 5.20%); type: functional
Hep 3B2 [10] = assay: Induction of apoptosis in human Hep3B cells assessed as late apoptotic cells at 0.5 uM incubated for 48 hrs by annexin V-FITC/propidium iodide staining based flow cytometry analysis (reference value: 5.20%); type: functional
Huh-7 [11] = assay: Induction of apoptosis in human Huh-7 cells assessed as necrotic cells at 0.5 uM incubated for 48 hrs by annexin V-FITC/propidium iodide staining based flow cytometry analysis (reference value: 5.20%); type: functional
Hep 3B2 [12] = assay: cells; details: Homo sapiens, Hep3B, 72 h
Description: Antiproliferative activity against human Hep3B cells assessed as inhibition of cell proliferation incubated for 72 hrs by MTT assay

Huh-7 [13] = assay: cells; details: Homo sapiens, Huh-7, 72 h
Description: Antiproliferative activity against human Huh-7 cells assessed as inhibition of cell proliferation incubated for 72 hrs by MTT assay

MDA-MB-231 = assay: cells; details: Homo sapiens, MDA-MB-231, 72 h
Description: Antiproliferative activity against human MDA-MB-231 cells assessed as inhibition of cell proliferation incubated for 72 hrs by MTT assay

[14] = molecular target: Fibroblast growth factor receptor 4 (Homo sapiens) (UniProt P22455); details: dose 10.0 nM
Description: Inhibition of FGFR4 (unknown origin) at 10 nM incubated for 15 mins in presence of ATP relative to control

[15] = molecular target: Fibroblast growth factor receptor 4 (Homo sapiens) (UniProt P22455); details: dose 100.0 nM
Description: Inhibition of FGFR4 (unknown origin) at 100 nM incubated for 15 mins in presence of ATP relative to control

[16] = molecular target: T1, Fibroblast growth factor receptor 1; assay: Inhibition of FGFR1 (unknown origin) incubated for 15 mins in presence of ATP
Target sequence in this assay (P11362 whole entry): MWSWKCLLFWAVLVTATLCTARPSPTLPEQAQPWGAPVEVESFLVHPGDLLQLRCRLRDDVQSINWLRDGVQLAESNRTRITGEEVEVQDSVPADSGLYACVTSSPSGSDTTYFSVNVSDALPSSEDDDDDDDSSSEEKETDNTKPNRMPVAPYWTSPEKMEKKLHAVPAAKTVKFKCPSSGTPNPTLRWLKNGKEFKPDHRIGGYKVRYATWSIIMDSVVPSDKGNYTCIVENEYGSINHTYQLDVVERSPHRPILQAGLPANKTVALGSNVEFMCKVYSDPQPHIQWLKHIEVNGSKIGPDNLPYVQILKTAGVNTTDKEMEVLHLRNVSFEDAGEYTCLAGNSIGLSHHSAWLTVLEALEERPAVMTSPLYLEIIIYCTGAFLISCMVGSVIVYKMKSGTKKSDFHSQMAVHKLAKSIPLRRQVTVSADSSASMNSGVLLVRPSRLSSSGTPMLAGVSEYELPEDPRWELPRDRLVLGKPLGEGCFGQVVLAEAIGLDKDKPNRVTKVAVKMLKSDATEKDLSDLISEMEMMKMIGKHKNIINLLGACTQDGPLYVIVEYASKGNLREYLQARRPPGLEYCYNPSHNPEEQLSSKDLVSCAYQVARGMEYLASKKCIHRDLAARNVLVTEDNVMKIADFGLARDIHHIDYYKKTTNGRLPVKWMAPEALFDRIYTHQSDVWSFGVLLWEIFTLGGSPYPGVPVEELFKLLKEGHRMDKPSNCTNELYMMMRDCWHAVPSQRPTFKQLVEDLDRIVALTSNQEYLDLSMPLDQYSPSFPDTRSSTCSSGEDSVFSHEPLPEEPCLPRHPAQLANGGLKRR

[17] = GSH reactivity in potassium phosphate buffer at pH 7.4 assessed as half life at 1 uM measured at 2 to 1440 mins by LC-MS/MS analysis; type: physicochemical; details: potassium phosphate buffer with GSH, time 2-1440 min
Huh-7 [18] = assay: Antitumor activity against human Huh-7 cells xenografted in nude mouse assessed as tumor growth inhibition at 25 mg/kg, ip administered for 15 days; type: functional; details: Huh-7, 360 h, time 15 day, read-out: TGI

Fibroblast growth factor receptor 4 (Homo sapiens), sequence (P22455 22-802 limits assumed): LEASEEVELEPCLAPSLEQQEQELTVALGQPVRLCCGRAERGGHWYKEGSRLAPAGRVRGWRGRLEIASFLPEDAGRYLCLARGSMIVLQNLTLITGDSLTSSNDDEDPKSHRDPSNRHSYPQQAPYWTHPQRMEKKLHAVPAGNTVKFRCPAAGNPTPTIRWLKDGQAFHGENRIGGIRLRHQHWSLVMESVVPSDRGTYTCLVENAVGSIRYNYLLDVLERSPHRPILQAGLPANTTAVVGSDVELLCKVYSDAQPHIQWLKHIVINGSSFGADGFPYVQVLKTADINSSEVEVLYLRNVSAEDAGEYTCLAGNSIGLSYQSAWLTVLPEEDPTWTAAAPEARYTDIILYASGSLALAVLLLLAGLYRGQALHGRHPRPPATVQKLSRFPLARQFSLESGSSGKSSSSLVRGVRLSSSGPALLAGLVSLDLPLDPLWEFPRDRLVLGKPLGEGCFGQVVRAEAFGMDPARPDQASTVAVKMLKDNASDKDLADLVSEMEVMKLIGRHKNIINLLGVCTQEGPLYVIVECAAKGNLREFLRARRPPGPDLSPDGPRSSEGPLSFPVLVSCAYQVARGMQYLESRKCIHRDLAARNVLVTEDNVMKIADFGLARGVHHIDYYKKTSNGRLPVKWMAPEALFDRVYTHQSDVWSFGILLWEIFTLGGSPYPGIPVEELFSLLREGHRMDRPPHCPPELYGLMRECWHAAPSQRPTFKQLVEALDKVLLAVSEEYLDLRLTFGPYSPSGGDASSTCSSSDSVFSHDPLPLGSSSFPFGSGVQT

Cc1ccc(C(=O)Nc2ccc(CN3CCN(C)CC3)c(C(F)(F)F)c2)cc1C#Cc1cnc(Nc2c(C)cccc2NC(=O)CCl)nc1
inhibition [1]: 0.2%
inhibition [2]: inactive

Cc1ccc(C(=O)Nc2ccc(CN3CCN(C)CC3)c(C(F)(F)F)c2)cc1C#Cc1cnc2cccnn12 [PONATINIB]
IC50 at 72 h [3]: 180 nM
Activity (Hep 3B2 [4]): 5.14%
viability at 0.5 µM (Huh-7 [5]): 75.5%
Activity (Huh-7 [6]): 18.5%
viability at 0.5 µM (Hep 3B2 [7]): 68%
Activity (Huh-7 [8]): 2.74%
Activity (Hep 3B2 [9]): 6.56%
Activity (Hep 3B2 [10]): 20.3%
Activity (Huh-7 [11]): 3.28%

C=CC(=O)Nc1ccccc1Nc1ncc(C#Cc2cc(C(=O)Nc3ccc(CN4CCN(C)CC4)c(C(F)(F)F)c3)ccc2C)cn1
IC50 at 72 h [3]: > 10000 nM
IC50 (Hep 3B2 [12]): 770 nM
IC50 (Huh-7 [13]): 680 nM
IC50 (MDA-MB-231): 2240 nM

Cc1ccc(C(=O)Nc2ccc(C(=O)N3CCN(C)CC3)c(C(F)(F)F)c2)cc1C#Cc1cnc(Nc2c(C)cccc2NC(=O)/C=C/CN(C)C)nc1
inhibition [14]: inactive
inhibition [1]: 2.2%
inhibition [15]: inactive
inhibition [2]: inactive

Cc1ccc(C(=O)Nc2ccc(CN3CCN(C)CC3)c(C(F)(F)F)c2)cc1C#Cc1cnc(Nc2c(C)cccc2NC(=O)/C=C/CN(C)C)nc1
IC50 at 72 h [3]: > 10000 nM
IC50 (Hep 3B2 [12]): 920 nM
IC50 [16]: 863 nM
IC50 (Huh-7 [13]): 1620 nM
IC50 (MDA-MB-231): 1250 nM

CC(C)=CC(=O)Nc1cccc(C)c1Nc1ncc(C#Cc2cccc(C(=O)Nc3ccc(CN4CCN(C)CC4)c(C(F)(F)F)c3)c2)cn1
inhibition [15]: < 10%

C=CC(=O)Nc1cccc(C)c1Nc1ncc(C#Cc2ccc(C)c(C(=O)Nc3ccc(CN4CCN(C)CC4)c(C(F)(F)F)c3)c2)cn1
inhibition [1]: 0.3%
inhibition [2]: inactive

C/C=C/C(=O)Nc1cccc(C)c1Nc1ncc(C#Cc2cc(C(=O)Nc3ccc(CN4CCN(C)CC4)c(C(F)(F)F)c3)ccc2C)cn1
inhibition [1]: inactive
inhibition [2]: inactive

CN(C)C/C=C/C(=O)Nc1cc2c(Nc3ccc(F)c(Cl)c3)ncnc2cc1O[C@H]1CCOC1 [AFATINIB]
half-life at 1 µM [17]: 30.1 min

C=CC(=O)Nc1cccc(Cl)c1Nc1ncc(C#Cc2cc(C(=O)Nc3ccc(CN4CCN(C)CC4)c(C(F)(F)F)c3)ccc2C)cn1
IC50 at 72 h [3]: > 10000 nM
IC50 (Hep 3B2 [12]): 870 nM
IC50 [16]: > 500 nM
IC50 (Huh-7 [13]): 410 nM
IC50 (MDA-MB-231): 4010 nM

C=CC(=O)Nc1cccc(C)c1Nc1ccc(C#Cc2cc(C(=O)Nc3ccc(CN4CCN(C)CC4)c(C(F)(F)F)c3)ccc2C)cn1
IC50 at 72 h [3]: > 10000 nM
IC50 (Hep 3B2 [12]): 660 nM
IC50 [16]: > 500 nM
IC50 (Huh-7 [13]): 520 nM
IC50 (MDA-MB-231): 3530 nM

Cc1ccc(C(=O)Nc2ccc(C(=O)N3CCN(C)CC3)c(C)c2)cc1C#Cc1cnc(Nc2c(C)cccc2NC(=O)/C=C/CN(C)C)nc1
inhibition [14]: inactive
inhibition [1]: 0.6%
inhibition [15]: inactive
inhibition [2]: inactive

C=CC(=O)Nc1cccc(C)c1Nc1ncc2cc(-c3c(Cl)c(OC)cc(OC)c3Cl)ccc2n1
IC50 at 72 h [3]: > 10000 nM
inhibition in vivo at 25 mg/kg (Huh-7 [18]): 61.8%
IC50 (Hep 3B2 [12]): 810 nM
IC50 [16]: 559 nM
half-life at 1 µM [17]: 60.1 min
IC50 (Huh-7 [13]): 490 nM
IC50 (MDA-MB-231): 4260 nM

C=CC(=O)Nc1cccc(C)c1Nc1ncc(C#Cc2cc(C(=O)Nc3ccc(CN4CCN(C)CC4)c(C(F)(F)F)c3)ccc2C)cn1
IC50 at 72 h [3]: > 10000 nM
IC50 (Hep 3B2 [12]): 430 nM
IC50 (Huh-7 [13]): 1630 nM
IC50 (MDA-MB-231): 4330 nM
